Results taken from paper PMC5958098, “The trimeric solution structure and fucose-binding mechanism of the core fucosylation-specific lectin PhoSL” (Scientific Reports, 2018).

Key:
PhoSL = biological target: T1, PhoSL (Pholiota squarrosa, UniProt A0A384E107); test: NMR chemical shift titration; type: binding; settings: 20 mM Tris-HCl pH 7.5, 0.2 mM DTT, 308 K; 50 μM peptide (as monomer); average for the two anomers
T1 construct: chemically synthesized 40-residue peptide, free termini, no tag, reduced Cys (DTT), homotrimer; […]; repeat 1 of a 180-residue polypeptide; differs from literature peptide at positions 23, 27, 35, 40

[1] = biological target: the molecule itself; test: SEC; Superdex 75 10/300 with marker proteins; 96 μM PhoSL peptide; 20 mM Tris-HCl pH 7.5, 100 mM NaCl

Row | Kd (PhoSL) [mM] | Molecule | stoichiometry N [1]
1 | 5.9 ± 0.2 | C[C@@H]1OC(O)[C@@H](O)[C@H](O)[C@@H]1O (mixture of isomers) [L-fucose] | 
2 |  | APVPVTKLVCDGDTYKCTAYLDYGDGKWVAQWDTAVFHTT (PhoSL lectin of Pholiota squarrosa; it corresponds to the first of three PhoSL-like repeats of the 180-residue polypeptide; numbers count on: the 40-residue peptide; No N-terminal acetylation and no C-terminal amidation; Cys10 and Cys17 were reduced (DTT) in the NMR samples; Homotrimer by gel filtration combined with cross-linking, and by the NMR structure; also called PhoSL trimer; source: …) | 3
